Test results from publication PMC10959927, “Platinum iodido drugs show potential anti-tumor activity, affecting cancer cell metabolism and inducing ROS and senescence in gastrointestinal cancer cells” (Communications Biology, 2024).
“And” between values parts separate entries of the source, which are not always exact repeats. Equal values may be shown once.

Legend:
Assay type in all cases: cell-based, human
[1] = test system: AGS cells; experiment: SA-β-Gal histochemical staining; conditions: Fig. S4A
Method: SA-β-Gal activity was measured following two different approaches. (i) AGS, MKN45 and PANC1 cells (5 × 10^4) were seeded in 24-multiwell dishes and incubated overnight. […] For flow cytometry cell senescence detection, cells were tripsinized, fixed for 15 min with PFA 4% and stained with the CellEvent Senescense Green Flow Cytometry Assay Kit (C10840, Invitrogen) according to manufacturer’s instructions. CellEvent Senescense Green Probe was used at a 1:500 dilution and fluorescence was detected using the filter (Ex488nm/Em530/30) BL1 with a 4-laser Attune NxT Acoustic Cytometer (Thermo Fisher Scientific). […] After 3 h, the treatments were removed, new supplemented medium was added, and cells were incubated for an additional 24 h. Finally, SA-β-Gal staining was performed using the Senescence Cells Histochemical Staining Kit (CS0030-1KT) according to the manufacturer’s instructions.

[2] = test system: PANC1 cells; experiment: ROS detection by confocal microscopy (DHE, MitoSox); conditions: PANC1, 1 h treatment; H2O2 200 µM, CDDP 10 µM, I5 20 µM, I6 20 µM
Method: Tumor cells were seeded at a density of 3 × 10^5 cells in 15 µm 8-well IBIDI plates and incubated overnight. […] Subsequently, cells were stained with 10 μM of dihydroethidium (DHE, cytosolic O2^·- probe, Sigma-Aldrich) or with 5 μM of Mitosox (mitochondrial O2^·- probe, Sigma-Aldrich) for 15–30 min[79] and then visualized on a confocal microscope (Confocal LSM 710 Zeiss, Biomedical Research Institute Alberto Sols, IIBm-CSIC-UAM, Madrid, Spain). The image analysis was realized using the software program Image J.

[3] = test system: AGS cells; experiment: Ratio GSH/GSSG, colorimetric kit; conditions: AGS, C+ (positive control), relative to Control = 1
Method: (§1) GSH and GSSG levels were determined in AGS and PANC1 cells after 3 and 24 h of treatment with the compounds (using H2O2 as a positive control) with the Glutathione Colorimetric Detection Kit (ThermoFisher) following the manufacturer’s instructions. Thirty minutes after adding the Colorimetric Detection Reagent and the Reaction Mixture, the absorbance was read at 405 nm. A standard curve was generated with each assay to interpolate the sample results. To measure GSSG, standards and samples must be diluted with the Sample Diluent containing 2-vinylpyridine.

[4] = test system: PANC1 cells; experiment: Ratio GSH/GSSG, colorimetric kit; conditions: PANC1, C+ (positive control), relative to Control = 1
Method: as §1

## OO [H2O2, reference compound]
[1]
  Fold change % Senescence: 52.81% and 54.43% and 58.54%
[2]
  DHE fluorescence intensity (per cell), cytosolic O2•−: 174.023 and 151.84 and 151.685 and 148.486 and 115.72 and 133.113
[3]
  GSH/GSSG: 0.8614 and 0.8667 and 0.9484
[4]
  GSH/GSSG: 0.5945 and 0.659 and 0.8185
